Data on 18 compounds can be found in PubChem BioAssay AID330 (DTP/NCI, 2004).

The assay concerns P388 leukemia ip, CD2F1 mice, survival T/C. As to the kind of experiment: NCI In Vivo Anticancer Drug Screen. Data for tumor model P388 Leukemia (intraperitoneal) in CD2F1 (CDF1) mice. Particulars: endpoint: median survival time, higher = longer survival. In short, it runs like this: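 Mice carrying the transplanted tumor received test compound or vehicle. Survival was recorded in each group, and the value is the treated-group measurement divided by that of the vehicle-treated control group.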

[1] abbreviates: dose: 60.0 mg/kg/injection, schedule: Q01DX005 (ip), vehicle: saline with Tween-80.
The mark [2] stands for this setting: dose: 50.0 mg/kg/injection, schedule: Q01DX005 (ip), vehicle: Klucel (hydroxypropylcellulose) (HPC).
The mark [3] stands for this setting: dose: 100.0 mg/kg/injection, schedule: Q01DX005 (ip), vehicle: Klucel (hydroxypropylcellulose) (HPC).
Setting [4] is: dose: 200.0 mg/kg/injection, schedule: Q01DX005 (ip), vehicle: Klucel (hydroxypropylcellulose) (HPC).
Setting [5] is: dose: 12.5 mg/kg/injection, schedule: Q01DX005 (ip), vehicle: saline with Tween-80.
Setting [6] is: dose: 25.0 mg/kg/injection, schedule: Q01DX005 (ip), vehicle: saline with Tween-80.
Where [7] appears, read: dose: 50.0 mg/kg/injection, schedule: Q01DX005 (ip), vehicle: saline with Tween-80.
Setting [8] is: dose: 12.5 mg/kg/injection, schedule: Q01DX009 (ip), vehicle: distilled water + Tween-80.
The mark [9] stands for this setting: dose: 25.0 mg/kg/injection, schedule: Q01DX009 (ip), vehicle: distilled water + Tween-80.
The mark [10] stands for this setting: dose: 50.0 mg/kg/injection, schedule: Q01DX009 (ip), vehicle: distilled water + Tween-80.

Several values for one entry are separate records, joined by “and”; a condition that tells them apart may be missing. Equal values may be shown once. Inconclusive results and toxic doses are left out.

Turning to `Cc1csc2nc(-c3ccccc3)c(/C=N/NC(=O)CN(C)C)n12`, the T/C by setting is: under setting [1], 110 % of control; (dose: 120.0 mg/kg/injection, schedule: Q01DX005 (ip), vehicle: saline with Tween-80) 103 % of control; (dose: 240.0 mg/kg/injection, schedule: Q01DX005 (ip), vehicle: saline with Tween-80) 99 % of control.

On to `CC1OC(O)C(O)C(O)C1O` (configuration not stated), for which the T/C reads like this: under setting [2], 101 % of control; under setting [3], 93 % of control; under setting [4], 104 % of control.

For `CCn1c(=O)c2[nH]c(Cl)nc2n(CCCl)c1=O`, the T/C by setting is: (dose: 16.0 mg/kg/injection, schedule: Q01DX009 (ip), vehicle: Klucel (hydroxypropylcellulose) (HPC)) 102 % of control and 118 % of control; (dose: 32.0 mg/kg/injection, schedule: Q01DX009 (ip), vehicle: Klucel (hydroxypropylcellulose) (HPC)) 111 % of control and 117 % of control; (dose: 64.0 mg/kg/injection, schedule: Q01DX009 (ip), vehicle: Klucel (hydroxypropylcellulose) (HPC)) 122 % of control; (dose: 128.0 mg/kg/injection, schedule: Q01DX009 (ip), vehicle: Klucel (hydroxypropylcellulose) (HPC)) 110 % of control.

As to `C=C1C(=O)OC(CCCCCCCCCCCCCC(C)=O)[C@H]1C(=O)O` (some centres not stated), the T/C reads like this: (dose: 5.0 mg/kg/injection, schedule: Q01DX005 (ip), vehicle: Klucel (hydroxypropylcellulose) (HPC)) 93 % of control; (dose: 5.0 mg/kg/injection, schedule: Q01DX005 (ip), vehicle: saline) 93 % of control; (dose: 10.0 mg/kg/injection, schedule: Q01DX005 (ip), vehicle: Klucel (hydroxypropylcellulose) (HPC)) 90 % of control; (dose: 10.0 mg/kg/injection, schedule: Q01DX005 (ip), vehicle: saline) 91 % of control; (dose: 20.0 mg/kg/injection, schedule: Q01DX005 (ip), vehicle: Klucel (hydroxypropylcellulose) (HPC)) 110 % of control and 90 % of control and 107 % of control; (dose: 20.0 mg/kg/injection, schedule: Q01DX005 (ip), vehicle: saline) 96 % of control. For the same compound, the T/C is, setting by setting: (dose: 40.0 mg/kg/injection, schedule: Q01DX005 (ip), vehicle: Klucel (hydroxypropylcellulose) (HPC)) 105 % of control and 98 % of control; (dose: 80.0 mg/kg/injection, schedule: Q01DX005 (ip), vehicle: Klucel (hydroxypropylcellulose) (HPC)) 107 % of control.

For the compound `C#CCOC(=O)c1ccccc1`, the T/C is 104 % of control under setting [5]; 89 % of control under setting [6]; 104 % of control and 95 % of control under setting [7].

As for `CC1(C)OC(=O)C(=Cc2ccc(-c3cc(C(F)(F)F)cc(C(F)(F)F)c3)o2)C(=O)O1`, the T/C is 104 % of control under setting [2], 100 % of control under setting [3] and 92 % of control under setting [4].

For the compound `COC(=O)C(NC(=O)OCc1ccccc1)C(C)O` (configuration not stated), the T/C is, setting by setting: under setting [8], 90 % of control; under setting [9], 102 % of control; under setting [10], 100 % of control; (dose: 100.0 mg/kg/injection, schedule: Q01DX009 (ip), vehicle: distilled water + Tween-80) 105 % of control; (dose: 200.0 mg/kg/injection, schedule: Q01DX009 (ip), vehicle: distilled water + Tween-80) 94 % of control.

Turning to `CC/C(=C(/CC)c1ccc(O)c(N(CCCl)CCCl)c1)c1ccc(O)c(N(CCCl)CCCl)c1`, the T/C by setting is: (dose: 7.5 mg/kg/injection, schedule: Q01DX009 (ip), vehicle: saline) 106 % of control; (dose: 15.0 mg/kg/injection, schedule: Q01DX009 (ip), vehicle: saline) 89 % of control; (dose: 30.0 mg/kg/injection, schedule: Q01DX009 (ip), vehicle: saline) 105 % of control.

In the case of `CCC1C(=O)NC(=O)C1(C)c1ccccc1` (configuration not stated), the T/C (dose: 25.0 mg/kg/injection, schedule: Q01DX009 (ip), vehicle: saline with Tween-80) is 100 % of control and 102 % of control; the T/C (dose: 50.0 mg/kg/injection, schedule: Q01DX009 (ip), vehicle: saline with Tween-80) was 100 % of control and 105 % of control; the T/C (dose: 100.0 mg/kg/injection, schedule: Q01DX009 (ip), vehicle: saline with Tween-80) was 102 % of control and 103 % of control; the T/C (dose: 200.0 mg/kg/injection, schedule: Q01DX009 (ip), vehicle: saline with Tween-80) is 102 % of control and 111 % of control.

Turning to `CCC/C(=N\NC(=S)N1CCCCCC1)c1ccccn1`, the T/C under setting [6] is 117 % of control and the T/C under setting [7] is 124 % of control.

In the case of `Nc1nc(N)c2nc(Sc3ccc(F)cc3)c(N)nc2n1`, the T/C runs as follows: (dose: 25.0 mg/kg/injection, schedule: Q01DX005 (ip), vehicle: Klucel (hydroxypropylcellulose) (HPC)) 97 % of control; under setting [2], 94 % of control; under setting [3], 88 % of control.

For `CC(/C=C/c1ccc(Cl)c(Cl)c1)=N\NC(N)=S`, the T/C under setting [1] is 121 % of control.

As to `C=C1C(=O)O[C@@H]2[C@H](O)[C@@H](C)[C@@H]3C=CC(=O)[C@@]3(C)[C@H](OC(=O)C=C(C)C)[C@H]12`, the T/C was 121 % of control (dose: 1.56 mg/kg/injection, schedule: Q01DX009 (ip), vehicle: saline with Tween-80); 120 % of control (dose: 3.12 mg/kg/injection, schedule: Q01DX009 (ip), vehicle: saline with Tween-80); 151 % of control (dose: 3.12 mg/kg/injection, schedule: Q01DX009 (ip), vehicle: saline); 117 % of control and 121 % of control (dose: 6.25 mg/kg/injection, schedule: Q01DX009 (ip), vehicle: saline with Tween-80); 107 % of control and 121 % of control (dose: 12.5 mg/kg/injection, schedule: Q01DX009 (ip), vehicle: saline with Tween-80); 150 % of control (dose: 12.5 mg/kg/injection, schedule: Q01DX009 (ip), vehicle: saline).

With `O=C(c1ccccc1)C(c1ccccc1)n1nccc1-c1ccccc1` (configuration not stated), the T/C reads like this: (dose: 50.0 mg/kg/injection, schedule: Q01DX009 (ip), vehicle: Klucel (hydroxypropylcellulose) (HPC)) 105 % of control; (dose: 100.0 mg/kg/injection, schedule: Q01DX009 (ip), vehicle: Klucel (hydroxypropylcellulose) (HPC)) 105 % of control; (dose: 200.0 mg/kg/injection, schedule: Q01DX009 (ip), vehicle: Klucel (hydroxypropylcellulose) (HPC)) 99 % of control.

With `Nc1ncnc2nc(Cl)[nH]c12`, the T/C under setting [2] was 91 % of control, the T/C under setting [3] is 93 % of control and the T/C under setting [4] is 93 % of control.

On to `Nc1ccc(N=Nc2ccc3cc4ccc(N=Nc5ccc(N)nc5N)cc4nc3c2)c(N)n1`, for which the T/C runs as follows: (dose: 6.25 mg/kg/injection, schedule: Q01DX005 (ip), vehicle: saline with Tween-80) 92 % of control; under setting [5], 100 % of control and 106 % of control; under setting [6], 100 % of control and 116 % of control; under setting [7], 95 % of control; (dose: 100.0 mg/kg/injection, schedule: Q01DX005 (ip), vehicle: saline with Tween-80) 106 % of control; (dose: 200.0 mg/kg/injection, schedule: Q01DX005 (ip), vehicle: saline with Tween-80) 109 % of control.

Take `O=C(Nc1ccc([N+](=O)[O-])cc1)Nc1nccs1`: the T/C is 108 % of control and 112 % of control and 115 % of control under setting [8]; 120 % of control under setting [9]; 119 % of control under setting [10].

`NS(=O)(=O)c1ncnc2nc[nH]c12`: the T/C runs as follows: (dose: 10.0 mg/kg/injection, schedule: Q01DX009 (ip), vehicle: saline with Tween-80) 112 % of control; (dose: 15.0 mg/kg/injection, schedule: Q01DX009 (ip), vehicle: saline with Tween-80) 112 % of control; (dose: 30.0 mg/kg/injection, schedule: Q01DX009 (ip), vehicle: saline with Tween-80) 90 % of control; (dose: 60.0 mg/kg/injection, schedule: Q01DX009 (ip), vehicle: saline with Tween-80) 104 % of control.
